Reference: ChEMBL document CHEMBL1201862, “PubChem BioAssay data set” (2004)
Blank lines part the entries; values can stand above or below the compound they belong to. Activity calls are given as the source filed them.

Columns and labels:
[1] = molecular target: Nuclear receptor subfamily 5 group A member 2 (Homo sapiens, UniProt O00482); assay type: functional, cell-based;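 note: HEK293T cells transfected with LRH-1 and a StAR promoter luciferase reporter; potency for inhibitors that lower LRH-1 driven reporter light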
Steroidogenic factor 1 = Steroidogenic factor 1 (Homo sapiens, UniProt Q13285); experiment: Counterscreen for inverse agonists of the liver receptor homolog-1 (LRH-1; NR5A2): Luminescence-based cell-based high throughput dose response assay to identify inverse agonists of the Steroidogenic Factor 1 Nuclear Receptor (SF1; NR5A1).; assay type: functional
[2] = nonselective StAR promoter luciferase inhibitors – cell-based, luminescence, luciferase reporter, counter-screen for LRH-1 inverse agonist project, dose response (AID 651969); assay type: functional
[3] = molecular target: T1, Delta-type opioid receptor (Homo sapiens, UniProt P41143); experiment: HTS Image-Based Screen for Antagonists of the DOR Receptor. [Related pubchem assays (depositor defined):AID1777, AID1785, AID1786, AID2133]; assay type: functional
Mu-type opioid receptor = Mu-type opioid receptor (Homo sapiens, UniProt P35372); experiment: HTS Image-Based Screen for Agonists of the MOR Receptor. [Related pubchem assays (depositor defined):AID1777, AID1785, AID1786, AID2133]; assay type: functional;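 note: imaging of beta-arrestin GFP recruitment into spots after receptor activation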
[4] = molecular target: T1, Delta-type opioid receptor; experiment: HTS Image-Based Screen for Agonists of the DOR Receptor. [Related pubchem assays (depositor defined):AID1777, AID1786, AID2133]; assay type: functional
[5] = Trypanosoma cruzi growth suppression in host cells – NIH3T3 host cells, beta-gal luminescence, confirmation (AID 2044); assay type: functional, cell-based;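 note: intracellular parasites grown in NIH/3T3 mouse fibroblasts as host cells; luminescent beta-galactosidase reporter signal from transgenic T. cruzi replicating inside host cells; inhibitors lower the luminescence signal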
[6] = molecular target: T2, Kappa-type opioid receptor (Homo sapiens, UniProt P41145); assay type: functional
[7] = NIH3T3 cell viability loss – ATP luminescence, mouse fibroblasts, counter-screen, dose response (AID 2010); assay type: functional, cell-based;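 note: cells exposed to compound for about 90 hours before reading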
Beta-galactosidase [8] = molecular target: T3, Beta-galactosidase (Escherichia coli, UniProt Q8VNN2); assay type: functional
[9] = molecular target: T2, Kappa-type opioid receptor; assay type: functional; remark: listed apart in the source
[10] = molecular target: Glucose-6-phosphate 1-dehydrogenase (Homo sapiens, UniProt P11413); experiment: inhibition of Homo sapiens G6PD, dose series – biochemical, fluorescence, selectivity assay for P. falciparum G6PD inhibitor project, dose response (AID 504792); assay type: functional
[11] = molecular target: T4, Short transient receptor potential channel 4 (Mus musculus, UniProt Q9QUQ5); experiment: block of DAMGO-driven TRPC4 calcium entry – cell-based, HEK293 TRPC4/mu-opioid, Fluo-4 calcium, dose response (AID 434942); assay type: functional;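 note: potency of inhibitors blocking the TRPC4 calcium response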
T4 sequence (Q9QUQ5 whole entry): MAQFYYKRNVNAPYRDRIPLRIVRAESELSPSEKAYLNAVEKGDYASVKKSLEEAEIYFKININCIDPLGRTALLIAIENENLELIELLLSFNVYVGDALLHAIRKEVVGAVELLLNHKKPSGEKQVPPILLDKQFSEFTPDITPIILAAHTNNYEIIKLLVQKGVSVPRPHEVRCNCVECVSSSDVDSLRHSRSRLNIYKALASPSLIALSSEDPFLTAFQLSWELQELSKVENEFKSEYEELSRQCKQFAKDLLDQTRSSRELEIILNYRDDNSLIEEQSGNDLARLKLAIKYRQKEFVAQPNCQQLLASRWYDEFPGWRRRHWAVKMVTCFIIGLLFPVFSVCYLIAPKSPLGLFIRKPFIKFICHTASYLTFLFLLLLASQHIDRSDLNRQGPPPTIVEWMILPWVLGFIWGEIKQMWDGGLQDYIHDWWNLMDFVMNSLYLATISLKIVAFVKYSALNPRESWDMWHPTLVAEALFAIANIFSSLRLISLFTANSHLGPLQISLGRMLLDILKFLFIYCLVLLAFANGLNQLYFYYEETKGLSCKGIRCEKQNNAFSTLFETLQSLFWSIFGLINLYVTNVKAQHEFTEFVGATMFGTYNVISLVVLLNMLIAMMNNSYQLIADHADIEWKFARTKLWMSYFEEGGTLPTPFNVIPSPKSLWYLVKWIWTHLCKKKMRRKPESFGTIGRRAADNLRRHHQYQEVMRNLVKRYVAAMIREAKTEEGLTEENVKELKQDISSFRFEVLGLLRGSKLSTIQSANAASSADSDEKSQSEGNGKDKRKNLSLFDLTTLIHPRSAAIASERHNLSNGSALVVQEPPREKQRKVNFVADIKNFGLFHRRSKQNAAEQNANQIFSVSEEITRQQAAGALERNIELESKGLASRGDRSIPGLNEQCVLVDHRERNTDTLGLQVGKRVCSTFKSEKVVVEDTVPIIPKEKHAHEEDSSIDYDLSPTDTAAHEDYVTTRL

Beta-galactosidase [12] = molecular target: T3, Beta-galactosidase; experiment: detection-enzyme interference by beta-gal modulators – biochemical, E. coli enzyme, set 3, artefact control for CCR6 antagonist project, dose response (AID 504712); assay type: functional
[13] = molecular target: T5, Microphthalmia-associated transcription factor (Homo sapiens, UniProt O75030); experiment: reducers of TRPM1 reporter luminescence, concentration series – cell-based, SK-MEL-5, cherry-picked, set 3, MITF inhibitor project, dose response (AID 493073); assay type: functional;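 note: SK-MEL-5 melanoma cells with luciferase driven by the MITF target TRPM1 promoter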
T5 sequence (O75030 whole entry): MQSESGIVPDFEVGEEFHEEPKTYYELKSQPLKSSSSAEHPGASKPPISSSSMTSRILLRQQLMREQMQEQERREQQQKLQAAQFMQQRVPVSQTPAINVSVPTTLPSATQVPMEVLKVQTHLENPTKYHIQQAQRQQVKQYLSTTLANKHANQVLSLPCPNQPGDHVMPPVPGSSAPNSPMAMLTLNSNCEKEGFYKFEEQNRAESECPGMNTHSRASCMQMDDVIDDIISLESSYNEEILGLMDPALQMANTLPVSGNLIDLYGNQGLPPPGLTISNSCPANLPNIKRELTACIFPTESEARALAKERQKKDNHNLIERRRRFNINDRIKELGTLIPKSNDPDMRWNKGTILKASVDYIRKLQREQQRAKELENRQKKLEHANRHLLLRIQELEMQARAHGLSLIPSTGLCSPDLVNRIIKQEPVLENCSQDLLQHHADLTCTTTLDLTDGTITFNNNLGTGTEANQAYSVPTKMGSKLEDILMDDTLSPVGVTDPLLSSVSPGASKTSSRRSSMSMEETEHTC

[14] = molecular target: Heat shock protein HSP 90-alpha (Homo sapiens, UniProt P07900); assay type: functional, organism-based
Melanocortin receptor 4 = Melanocortin receptor 4 (Homo sapiens, UniProt P32245); experiment: inhibitors of MC4R cAMP signaling – cell-based, TR-FRET, biased antagonists, dose response (AID 602298); assay type: functional;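 note: antagonist potency against agonist-stimulated cAMP production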
[15] = cAMP pathway inhibition in counterscreen cell line – TR-FRET cAMP detection, counter-screen for MC4R biased antagonist project, dose response (AID 602305); assay type: functional, cell-based;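 note: U2OS cells stimulated with forskolin near its EC80 as the cAMP inducer; potency is for inhibition of forskolin-stimulated cAMP signaling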
[16] = molecular target: T6, Small ubiquitin-related modifier 1 (Homo sapiens, UniProt P63165); experiment: SUMO1 protein interaction blockers, potency – biochemical, fluorescence polarization, uHTS hits, dose response (AID 624382); assay type: functional; conditions: read-out: IC50_Mean
[17] = molecular target: T6, Small ubiquitin-related modifier 1; experiment: SUMO1 protein-protein binding blockers, potency – biochemical, FRET, dose response (AID 624383); assay type: functional; conditions: read-out: IC50_Mean
Protein Wnt-3a = Protein Wnt-3a (Mus musculus, UniProt P27467); experiment: antagonism of Wnt3a pathway luciferase reporter – Wnt-LIGHT cells, luminescence, selectivity assay for Gli-SUFU antagonist project, dose response (AID 651570); assay type: functional; conditions: read-out: IC50_Mean;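 note: Wnt-LIGHT reporter cells stimulated with conditioned medium from Wnt3a-producing cells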
Cytochrome P450 2D6 = Cytochrome P450 2D6 (Homo sapiens, UniProt P10635);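 note: CYP2D6 member of a cytochrome P450 panel assay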
Cytochrome P450 3A4 = Cytochrome P450 3A4 (Homo sapiens, UniProt P08684);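 note: CYP3A4 tested as one member of a cytochrome P450 panel screen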
[18] = molecular target: Voltage-dependent T-type calcium channel subunit alpha-1H (Homo sapiens, UniProt O95180); assay type: functional;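 note: channel activity triggered by adding a high calcium stimulation buffer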
[19] = inhibition of ARNT PAS-B/TACC3 complex formation – biochemical, AlphaScreen, cherry-picked samples, confirmation (AID 651703); assay type: functional, Homo sapiens;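 note: His-tagged ARNT PAS-B domain paired with GST-TACC3 E629A dimer coactivator fragment; potency of inhibitors that break up the complex and lower AlphaScreen signal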
[20] = molecular target: T7, Sentrin-specific protease 1 (Homo sapiens, UniProt Q9P0U3); experiment: SENP1 catalytic domain blockers, concentration series – biochemical, kinetic FRET, dose response (AID 651697); assay type: functional; conditions: read-out: IC50_Mean
[21] = molecular target: T7, Sentrin-specific protease 1; experiment: Dose response confirmation of small molecule inhibitors of the catalytic domain of the SUMO protease, SENP1 in a FRET assay.; assay type: functional; conditions: read-out: IC50_Mean

T7 sequence (Q9P0U3 whole entry, the tested form may be a part): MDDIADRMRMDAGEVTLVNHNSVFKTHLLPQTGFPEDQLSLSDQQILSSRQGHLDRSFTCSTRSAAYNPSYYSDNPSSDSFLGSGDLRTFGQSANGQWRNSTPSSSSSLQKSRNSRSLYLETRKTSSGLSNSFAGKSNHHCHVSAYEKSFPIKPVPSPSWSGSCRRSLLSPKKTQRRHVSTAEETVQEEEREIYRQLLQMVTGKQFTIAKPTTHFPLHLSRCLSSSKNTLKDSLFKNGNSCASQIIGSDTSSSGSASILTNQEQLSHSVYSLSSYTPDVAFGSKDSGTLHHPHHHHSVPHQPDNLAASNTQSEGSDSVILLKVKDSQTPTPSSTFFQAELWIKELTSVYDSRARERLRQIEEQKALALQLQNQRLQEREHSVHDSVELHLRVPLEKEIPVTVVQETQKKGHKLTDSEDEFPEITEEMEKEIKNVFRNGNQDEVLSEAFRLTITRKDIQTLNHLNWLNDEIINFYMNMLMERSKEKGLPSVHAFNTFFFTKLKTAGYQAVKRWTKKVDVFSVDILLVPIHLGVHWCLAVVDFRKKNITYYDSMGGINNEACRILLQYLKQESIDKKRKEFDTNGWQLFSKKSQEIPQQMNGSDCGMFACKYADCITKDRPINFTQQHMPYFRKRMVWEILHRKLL
T6 sequence (P63165 whole entry): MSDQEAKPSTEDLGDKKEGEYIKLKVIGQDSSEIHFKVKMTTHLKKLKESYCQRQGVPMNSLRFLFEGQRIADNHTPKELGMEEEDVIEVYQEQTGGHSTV
T1 sequence (P41143 whole entry): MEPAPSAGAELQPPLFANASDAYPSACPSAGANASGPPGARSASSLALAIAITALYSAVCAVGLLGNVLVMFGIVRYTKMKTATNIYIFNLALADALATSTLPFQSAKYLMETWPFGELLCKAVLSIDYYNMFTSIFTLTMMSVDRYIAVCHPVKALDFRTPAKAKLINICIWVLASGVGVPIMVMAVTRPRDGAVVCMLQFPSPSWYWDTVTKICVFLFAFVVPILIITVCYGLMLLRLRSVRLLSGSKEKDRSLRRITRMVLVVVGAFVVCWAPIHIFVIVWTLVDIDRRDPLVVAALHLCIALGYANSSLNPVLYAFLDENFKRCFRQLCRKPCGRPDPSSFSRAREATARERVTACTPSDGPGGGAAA
T2 sequence (P41145 whole entry): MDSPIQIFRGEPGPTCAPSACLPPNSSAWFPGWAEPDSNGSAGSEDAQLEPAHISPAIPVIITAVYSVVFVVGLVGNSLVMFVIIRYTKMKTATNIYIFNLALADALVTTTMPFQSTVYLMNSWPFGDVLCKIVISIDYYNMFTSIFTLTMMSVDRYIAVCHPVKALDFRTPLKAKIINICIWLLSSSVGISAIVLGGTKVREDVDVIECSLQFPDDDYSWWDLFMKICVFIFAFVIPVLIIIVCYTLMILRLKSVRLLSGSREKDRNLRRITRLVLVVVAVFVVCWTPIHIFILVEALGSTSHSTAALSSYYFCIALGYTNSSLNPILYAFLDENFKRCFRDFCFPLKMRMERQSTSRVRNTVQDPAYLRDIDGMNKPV
T3 sequence (Q8VNN2 whole entry): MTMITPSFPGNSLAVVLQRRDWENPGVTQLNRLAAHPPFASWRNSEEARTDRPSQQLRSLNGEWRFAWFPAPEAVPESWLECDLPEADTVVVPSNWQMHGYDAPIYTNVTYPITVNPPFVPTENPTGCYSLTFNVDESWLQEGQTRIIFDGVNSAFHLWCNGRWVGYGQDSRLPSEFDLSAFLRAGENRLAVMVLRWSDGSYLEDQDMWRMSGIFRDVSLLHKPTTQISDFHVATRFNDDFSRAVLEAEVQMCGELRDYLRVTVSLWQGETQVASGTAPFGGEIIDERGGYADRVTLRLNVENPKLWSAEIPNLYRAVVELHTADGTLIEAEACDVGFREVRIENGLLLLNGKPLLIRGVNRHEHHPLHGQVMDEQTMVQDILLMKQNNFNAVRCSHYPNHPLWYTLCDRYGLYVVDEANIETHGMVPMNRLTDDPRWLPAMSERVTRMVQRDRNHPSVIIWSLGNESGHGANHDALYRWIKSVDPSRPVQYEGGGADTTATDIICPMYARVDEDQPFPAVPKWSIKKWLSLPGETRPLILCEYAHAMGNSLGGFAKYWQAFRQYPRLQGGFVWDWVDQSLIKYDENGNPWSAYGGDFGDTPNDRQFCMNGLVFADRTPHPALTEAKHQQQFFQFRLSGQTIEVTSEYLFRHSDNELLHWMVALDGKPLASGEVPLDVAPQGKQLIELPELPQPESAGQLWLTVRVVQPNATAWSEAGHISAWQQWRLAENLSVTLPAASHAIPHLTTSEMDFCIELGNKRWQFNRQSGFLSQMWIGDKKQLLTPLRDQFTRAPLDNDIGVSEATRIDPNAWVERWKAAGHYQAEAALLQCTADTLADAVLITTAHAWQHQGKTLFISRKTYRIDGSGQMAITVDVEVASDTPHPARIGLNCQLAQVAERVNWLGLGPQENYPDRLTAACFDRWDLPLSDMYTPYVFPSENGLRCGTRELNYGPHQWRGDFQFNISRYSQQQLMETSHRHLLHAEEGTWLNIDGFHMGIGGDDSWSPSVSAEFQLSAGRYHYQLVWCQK
Sequence of Cytochrome P450 2D6 (P10635 whole entry): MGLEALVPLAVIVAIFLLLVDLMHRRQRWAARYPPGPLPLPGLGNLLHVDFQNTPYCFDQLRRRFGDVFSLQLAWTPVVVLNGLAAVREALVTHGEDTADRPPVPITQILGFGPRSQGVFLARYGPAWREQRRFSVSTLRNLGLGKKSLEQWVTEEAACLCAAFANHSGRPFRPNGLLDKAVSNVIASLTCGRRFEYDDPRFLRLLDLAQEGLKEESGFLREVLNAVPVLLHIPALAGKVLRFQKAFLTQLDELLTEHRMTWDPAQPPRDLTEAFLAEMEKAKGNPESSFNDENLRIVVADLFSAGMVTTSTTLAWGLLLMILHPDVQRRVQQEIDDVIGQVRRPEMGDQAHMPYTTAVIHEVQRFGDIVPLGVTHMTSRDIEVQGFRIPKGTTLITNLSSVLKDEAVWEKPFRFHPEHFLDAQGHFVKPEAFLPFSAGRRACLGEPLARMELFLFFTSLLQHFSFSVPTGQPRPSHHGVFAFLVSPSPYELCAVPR
Sequence of Nuclear receptor subfamily 5 group A member 2 (O00482 whole entry): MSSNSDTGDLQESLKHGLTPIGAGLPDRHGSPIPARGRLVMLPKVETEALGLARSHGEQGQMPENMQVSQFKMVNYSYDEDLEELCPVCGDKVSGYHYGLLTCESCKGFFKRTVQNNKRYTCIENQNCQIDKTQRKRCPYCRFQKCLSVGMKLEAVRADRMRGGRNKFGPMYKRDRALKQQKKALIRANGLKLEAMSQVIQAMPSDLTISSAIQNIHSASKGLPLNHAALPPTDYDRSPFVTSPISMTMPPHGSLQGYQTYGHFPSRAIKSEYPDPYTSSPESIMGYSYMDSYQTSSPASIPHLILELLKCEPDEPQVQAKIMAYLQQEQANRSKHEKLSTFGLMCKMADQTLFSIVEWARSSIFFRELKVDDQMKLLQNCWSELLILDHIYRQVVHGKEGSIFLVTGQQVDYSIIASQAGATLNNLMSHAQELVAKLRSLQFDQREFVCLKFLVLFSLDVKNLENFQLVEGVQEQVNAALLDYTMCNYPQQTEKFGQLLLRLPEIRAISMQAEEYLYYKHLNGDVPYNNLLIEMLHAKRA
Sequence of Glucose-6-phosphate 1-dehydrogenase (P11413 whole entry): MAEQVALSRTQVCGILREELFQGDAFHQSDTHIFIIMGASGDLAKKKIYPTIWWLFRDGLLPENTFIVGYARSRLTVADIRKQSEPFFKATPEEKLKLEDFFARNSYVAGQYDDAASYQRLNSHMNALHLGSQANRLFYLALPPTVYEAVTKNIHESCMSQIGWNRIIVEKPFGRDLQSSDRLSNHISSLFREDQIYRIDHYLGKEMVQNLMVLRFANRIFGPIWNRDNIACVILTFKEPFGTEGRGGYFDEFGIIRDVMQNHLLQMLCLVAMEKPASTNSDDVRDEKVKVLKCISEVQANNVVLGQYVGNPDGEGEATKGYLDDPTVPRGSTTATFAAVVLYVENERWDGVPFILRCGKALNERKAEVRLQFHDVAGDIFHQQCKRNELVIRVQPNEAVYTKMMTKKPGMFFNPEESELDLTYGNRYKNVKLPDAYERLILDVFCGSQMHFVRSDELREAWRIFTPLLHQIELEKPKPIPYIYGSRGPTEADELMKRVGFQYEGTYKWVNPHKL
Sequence of Cytochrome P450 3A4 (P08684 whole entry): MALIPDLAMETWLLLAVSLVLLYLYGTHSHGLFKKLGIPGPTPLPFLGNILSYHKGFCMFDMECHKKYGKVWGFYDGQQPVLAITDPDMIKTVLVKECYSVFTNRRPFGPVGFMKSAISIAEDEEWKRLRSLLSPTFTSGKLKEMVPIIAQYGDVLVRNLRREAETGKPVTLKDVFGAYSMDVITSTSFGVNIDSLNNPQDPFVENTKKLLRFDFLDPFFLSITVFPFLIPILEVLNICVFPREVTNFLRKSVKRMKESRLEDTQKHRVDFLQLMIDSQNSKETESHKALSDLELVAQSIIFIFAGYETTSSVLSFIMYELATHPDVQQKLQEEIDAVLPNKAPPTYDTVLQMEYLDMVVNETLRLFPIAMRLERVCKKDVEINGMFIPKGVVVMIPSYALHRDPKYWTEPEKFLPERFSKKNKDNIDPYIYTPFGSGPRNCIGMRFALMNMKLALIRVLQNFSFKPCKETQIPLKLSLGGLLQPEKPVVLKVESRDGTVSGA
Sequence of Mu-type opioid receptor (P35372 whole entry): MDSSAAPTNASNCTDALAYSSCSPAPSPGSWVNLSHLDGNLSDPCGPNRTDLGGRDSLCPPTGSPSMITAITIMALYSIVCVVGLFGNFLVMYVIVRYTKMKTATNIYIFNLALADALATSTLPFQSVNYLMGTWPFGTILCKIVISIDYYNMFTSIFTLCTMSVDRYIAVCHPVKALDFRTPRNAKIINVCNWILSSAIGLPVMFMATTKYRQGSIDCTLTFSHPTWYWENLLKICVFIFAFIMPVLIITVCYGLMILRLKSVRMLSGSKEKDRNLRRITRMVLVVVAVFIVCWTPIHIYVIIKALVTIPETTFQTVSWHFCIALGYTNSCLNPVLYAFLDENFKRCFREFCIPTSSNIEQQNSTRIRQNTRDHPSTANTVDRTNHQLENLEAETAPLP

Structure (SMILES): COc1cc(C(=O)Nc2ccccc2N2CCN(S(C)(=O)=O)CC2)cc(OC)c1OC
IC50 [1]: 14.6 µM (inactive)
IC50 (Steroidogenic factor 1): 7.65 µM (active)
IC50 [2]: 35.9 µM (inactive)

Structure (SMILES): Cc1ccc(NC(=O)c2cc(N3C(=O)C=CC3=O)ccc2N2CCOCC2)cc1
IC50 [3]: > 32 µM (inactive)
EC50 (Mu-type opioid receptor): > 32 µM (inactive)
EC50 [4]: > 32 µM (inactive)
EC50 [5]: 2.85 µM (active)
IC50 [6]: 8.25 µM (active)
EC50 [7]: 6.01 µM (active)
EC50 (Beta-galactosidase [8]): > 31.5 µM (inactive)
IC50 [9]: 23.7 µM
IC50 [10]: 53 µM (inactive)
EC50 [11]: 5.31 µM (active)
IC50 (Beta-galactosidase [12]): > 66.6 µM (inactive)
AC50 [13]: 11.6 µM (active)
AC50 [14]: 0.591 µM (active)
IC50 (Melanocortin receptor 4): 11.9 µM (inactive)
IC50 [15]: 39 µM (inactive)

Structure (SMILES): CC(=O)c1sc(Nc2nc3cc4c(cc3s2)OCO4)nc1C
IC50 [16]: > 66.6 µM (inactive)
IC50 [17]: 11.1 µM (active)

IC50 (Protein Wnt-3a): 5.78 µM (active)
AC50 (Cytochrome P450 2D6): 11.2 µM (inconclusive)
AC50 (Cytochrome P450 3A4): inconclusive
Structure (SMILES): FC(F)(F)c1ccc(N2CCN(c3cc(-c4ccccc4)nc4ncnn34)CC2)nc1

EC50 [18]: 5.07 µM (active)
Structure (SMILES): COc1ccc(C(c2nnnn2C2CCCC2)N2CCc3ccccc3C2)cc1OC (configuration not stated)
AC50 [19]: 132 µM (active)

IC50 [20]: 8.83 µM (active)
IC50 [21]: 8.04 µM (active)
Structure (SMILES): Cc1nc2nonc2c2nccc(O)c12
